Test results as given in ChEMBL document CHEMBL1201862, “PubChem BioAssay data set” (2004).
Active and inactive are the calls of the source.

Tests used:
[1] = molecular target: T1, Aminopeptidase N (Plasmodium falciparum FcB1/Columbia, UniProt O96935); experiment: malaria alanyl aminopeptidase activity blockers – biochemical, fluorogenic H-Leu-NHMec substrate, 1536-well (AID 1445); parameters: species or system Plasmodium falciparum 3D7, 3D7
T1 sequence (O96935 whole entry): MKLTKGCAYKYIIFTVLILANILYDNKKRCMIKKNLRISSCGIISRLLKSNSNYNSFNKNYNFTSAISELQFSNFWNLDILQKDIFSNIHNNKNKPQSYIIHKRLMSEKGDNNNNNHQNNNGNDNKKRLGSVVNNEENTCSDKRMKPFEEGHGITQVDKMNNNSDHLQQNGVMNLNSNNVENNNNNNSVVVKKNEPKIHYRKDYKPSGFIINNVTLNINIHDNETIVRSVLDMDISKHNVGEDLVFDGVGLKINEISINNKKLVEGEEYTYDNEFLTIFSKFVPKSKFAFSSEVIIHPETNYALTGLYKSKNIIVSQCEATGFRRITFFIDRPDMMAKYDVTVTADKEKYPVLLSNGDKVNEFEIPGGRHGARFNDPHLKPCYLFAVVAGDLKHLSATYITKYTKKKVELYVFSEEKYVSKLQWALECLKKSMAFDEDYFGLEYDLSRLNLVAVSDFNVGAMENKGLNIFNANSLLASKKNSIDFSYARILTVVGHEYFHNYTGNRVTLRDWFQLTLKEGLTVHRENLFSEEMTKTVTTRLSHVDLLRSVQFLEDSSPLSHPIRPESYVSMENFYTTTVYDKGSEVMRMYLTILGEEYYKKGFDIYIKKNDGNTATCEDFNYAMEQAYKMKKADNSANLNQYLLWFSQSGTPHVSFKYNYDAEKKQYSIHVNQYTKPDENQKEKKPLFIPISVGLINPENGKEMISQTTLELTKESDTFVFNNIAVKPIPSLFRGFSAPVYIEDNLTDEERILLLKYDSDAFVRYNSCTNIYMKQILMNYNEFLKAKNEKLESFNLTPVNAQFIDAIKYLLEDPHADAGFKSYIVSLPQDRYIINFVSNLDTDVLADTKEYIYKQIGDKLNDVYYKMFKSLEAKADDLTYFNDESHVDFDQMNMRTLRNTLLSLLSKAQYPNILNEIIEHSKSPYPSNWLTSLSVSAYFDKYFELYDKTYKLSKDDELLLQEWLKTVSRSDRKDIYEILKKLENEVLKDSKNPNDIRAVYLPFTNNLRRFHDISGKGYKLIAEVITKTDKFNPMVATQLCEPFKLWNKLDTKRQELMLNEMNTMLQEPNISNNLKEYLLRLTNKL

[2] = THP-1 cell cytotoxicity, dose response, cytotoxicity control for non-replicating M. tuberculosis project (AID 489025); assay type: functional
[3] = cells; assay type: functional
[4] = system: Vero; experiment: cells; assay type: functional; settings: Chlorocebus sabaeus
[5] = molecular target: Cytochrome P450 2C19 (Homo sapiens, UniProt P33261); experiment: Cytochrome panel assay with activity outcomes. Panel member name: p450-cyp2c19 Compounds with AC50 equal or less than 10 uM are considered active; assay type: functional; settings: read-out: AC50
[6] = molecular target: Cytochrome P450 3A4 (Homo sapiens, UniProt P08684);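 note: CYP3A4 tested as one member of a cytochrome P450 panel screen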
[7] = molecular target: T2, Heat shock factor protein 1 (Mus musculus, UniProt P38532); experiment: decrease of HSF1-responsive luciferase luminescence – cell-based, NIH3T3, dose retest, confirmation (AID 2382); assay type: functional;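 note: NIH3T3 fibroblasts with HSF1-driven luciferase reporter stressed by proteasome inhibitor MG132; luminescence from HSF1-driven luciferase expression after 8 hours of MG132 stress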
T2 sequence (P38532 whole entry): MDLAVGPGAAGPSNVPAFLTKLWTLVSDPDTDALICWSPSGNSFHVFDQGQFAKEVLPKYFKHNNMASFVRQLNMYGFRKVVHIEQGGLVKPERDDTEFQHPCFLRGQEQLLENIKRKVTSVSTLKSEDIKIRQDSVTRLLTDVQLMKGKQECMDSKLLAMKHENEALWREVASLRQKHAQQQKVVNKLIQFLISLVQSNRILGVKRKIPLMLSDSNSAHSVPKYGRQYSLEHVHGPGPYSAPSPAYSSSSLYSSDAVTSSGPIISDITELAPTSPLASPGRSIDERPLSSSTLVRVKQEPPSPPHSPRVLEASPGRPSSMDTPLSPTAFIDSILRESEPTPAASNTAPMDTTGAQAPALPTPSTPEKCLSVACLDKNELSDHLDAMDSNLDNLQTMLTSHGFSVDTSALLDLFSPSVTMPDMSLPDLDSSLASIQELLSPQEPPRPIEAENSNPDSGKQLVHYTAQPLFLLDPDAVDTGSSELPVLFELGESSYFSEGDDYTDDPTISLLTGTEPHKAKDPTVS

[8] = molecular target: Prothrombin (Homo sapiens, UniProt P00734); experiment: Thrombin 1536 HTS Dose Response Confirmation. [Related pubchem assays: 1046 (Thrombin 1536 HTS; hits were confirmed in this assay)]; assay type: functional
[9] = molecular target: T3, Cytochrome P450 1A2 (Homo sapiens, UniProt P05177);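 note: PubChem cytochrome P450 panel assay, CYP1A2 panel member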
T3 sequence (P05177 whole entry): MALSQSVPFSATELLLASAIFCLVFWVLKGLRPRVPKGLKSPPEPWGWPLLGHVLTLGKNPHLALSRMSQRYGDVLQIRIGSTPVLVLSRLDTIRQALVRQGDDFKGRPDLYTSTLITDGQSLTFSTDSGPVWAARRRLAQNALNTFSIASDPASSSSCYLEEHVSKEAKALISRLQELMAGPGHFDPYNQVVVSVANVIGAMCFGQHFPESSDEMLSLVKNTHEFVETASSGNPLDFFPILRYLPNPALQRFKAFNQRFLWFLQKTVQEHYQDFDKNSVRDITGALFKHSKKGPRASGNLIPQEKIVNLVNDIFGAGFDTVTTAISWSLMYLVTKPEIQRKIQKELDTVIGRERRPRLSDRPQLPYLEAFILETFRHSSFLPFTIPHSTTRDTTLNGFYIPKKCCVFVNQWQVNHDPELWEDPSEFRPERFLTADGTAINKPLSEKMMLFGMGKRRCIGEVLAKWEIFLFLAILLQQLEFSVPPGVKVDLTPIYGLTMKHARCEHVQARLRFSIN

[10] = molecular target: Cytochrome P450 2C9 (Homo sapiens, UniProt P11712)
[11] = molecular target: T4, Short transient receptor potential channel 4 (Mus musculus, UniProt Q9QUQ5); experiment: calcium entry via TRPC4 opening agents – cell-based, HEK293 TRPC4/mu-opioid, Fluo-4 calcium, dose response (AID 434937); assay type: functional
T4 sequence (Q9QUQ5 whole entry): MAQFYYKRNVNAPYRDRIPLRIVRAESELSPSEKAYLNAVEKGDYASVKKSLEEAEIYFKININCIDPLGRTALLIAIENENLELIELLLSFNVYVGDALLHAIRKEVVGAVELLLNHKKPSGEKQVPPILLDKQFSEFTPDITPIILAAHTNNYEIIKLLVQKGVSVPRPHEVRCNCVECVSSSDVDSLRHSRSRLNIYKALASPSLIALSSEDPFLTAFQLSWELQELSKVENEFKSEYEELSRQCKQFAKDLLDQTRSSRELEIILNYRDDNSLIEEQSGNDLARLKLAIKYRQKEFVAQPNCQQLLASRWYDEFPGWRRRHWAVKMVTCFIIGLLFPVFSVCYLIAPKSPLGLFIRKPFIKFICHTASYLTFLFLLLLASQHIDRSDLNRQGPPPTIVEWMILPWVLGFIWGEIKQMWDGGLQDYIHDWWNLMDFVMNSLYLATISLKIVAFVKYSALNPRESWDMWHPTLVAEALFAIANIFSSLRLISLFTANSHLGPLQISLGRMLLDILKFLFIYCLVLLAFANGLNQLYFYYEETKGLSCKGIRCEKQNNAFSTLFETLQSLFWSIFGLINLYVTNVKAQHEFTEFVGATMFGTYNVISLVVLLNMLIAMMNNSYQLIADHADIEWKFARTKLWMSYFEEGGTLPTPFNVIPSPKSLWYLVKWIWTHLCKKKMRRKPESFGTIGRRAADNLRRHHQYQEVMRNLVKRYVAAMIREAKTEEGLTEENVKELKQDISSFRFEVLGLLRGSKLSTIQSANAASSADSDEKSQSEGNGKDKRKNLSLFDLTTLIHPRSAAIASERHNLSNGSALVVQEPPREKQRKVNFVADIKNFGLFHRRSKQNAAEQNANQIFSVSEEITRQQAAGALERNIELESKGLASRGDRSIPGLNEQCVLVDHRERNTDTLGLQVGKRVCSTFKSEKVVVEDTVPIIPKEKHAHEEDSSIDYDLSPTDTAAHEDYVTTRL

[12] = molecular target: Cytochrome P450 2D6 (Homo sapiens, UniProt P10635);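 note: CYP2D6 member of a cytochrome P450 panel assay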
[13] = NIH-3T3 fibroblast cytotoxicity, dose response, cytotoxicity control, cell-based, fluorescence, Alamar Blue, secondary assay (AID 2327); assay type: functional;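 note: NIH-3T3 mouse fibroblasts cultured with fluconazole at 8 µg/mL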
[14] = fluconazole-exposed Candida albicans growth modulators – fluorescence, retest, confirmation (AID 2467); assay type: functional, cell-based
[15] = microbe, parasite or virus in culture; assay type: functional; settings: Mycobacterium tuberculosis
[16] = molecular target: Heat shock protein HSP 90-alpha (Homo sapiens, UniProt P07900); assay type: functional, organism-based
[17] = reduction of Shn3 3'UTR-driven luciferase in osteoblasts – cell-based, Clone20 osteoblasts, firefly luciferase, cherry-picked, dose response (AID 624132); assay type: functional;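 note: firefly luciferase luminescence from reporter carrying the Shn3 3'UTR in osteoblasts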
[18] = loss of viability in HepG2 cells – cell-based, CellTiter-Glo, cherry-picked, cytotoxicity control for Shn3 inhibitor project, dose response (AID 624134); assay type: functional
[19] = non-specific 3'UTR reporter inhibition in Clone20-Shn3RL – cell-based, Renilla luciferase, cherry-picked, counter-screen for Shn3 inhibitor project, dose response (AID 624133); assay type: functional
[20] = molecular target: T5, Rac GTPase-activating protein 1 (Homo sapiens, UniProt Q9H0H5); experiment: blockers of MgcRacGAP-driven Rac1 GTP hydrolysis – biochemical, ADP Hunter fluorescence, primary and confirmatory, confirmation (AID 624330); assay type: functional
T5 sequence (Q9H0H5 whole entry): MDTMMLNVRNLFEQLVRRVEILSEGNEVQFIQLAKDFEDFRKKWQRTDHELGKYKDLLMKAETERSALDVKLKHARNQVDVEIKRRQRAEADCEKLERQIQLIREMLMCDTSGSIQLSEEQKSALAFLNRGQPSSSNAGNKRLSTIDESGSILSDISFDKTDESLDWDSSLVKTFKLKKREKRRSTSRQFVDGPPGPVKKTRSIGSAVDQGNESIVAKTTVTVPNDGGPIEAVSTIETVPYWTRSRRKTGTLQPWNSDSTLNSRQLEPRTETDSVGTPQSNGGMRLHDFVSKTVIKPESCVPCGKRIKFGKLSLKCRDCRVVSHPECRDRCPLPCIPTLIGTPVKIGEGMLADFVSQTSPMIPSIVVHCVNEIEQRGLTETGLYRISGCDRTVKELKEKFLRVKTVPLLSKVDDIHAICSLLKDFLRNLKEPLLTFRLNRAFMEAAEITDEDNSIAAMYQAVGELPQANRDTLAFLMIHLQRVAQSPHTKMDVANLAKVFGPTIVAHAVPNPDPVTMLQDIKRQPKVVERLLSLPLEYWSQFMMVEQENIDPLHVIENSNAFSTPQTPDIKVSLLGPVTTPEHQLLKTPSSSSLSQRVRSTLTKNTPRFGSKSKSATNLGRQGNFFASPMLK

Cytochrome P450 3A4, sequence (P08684 whole entry): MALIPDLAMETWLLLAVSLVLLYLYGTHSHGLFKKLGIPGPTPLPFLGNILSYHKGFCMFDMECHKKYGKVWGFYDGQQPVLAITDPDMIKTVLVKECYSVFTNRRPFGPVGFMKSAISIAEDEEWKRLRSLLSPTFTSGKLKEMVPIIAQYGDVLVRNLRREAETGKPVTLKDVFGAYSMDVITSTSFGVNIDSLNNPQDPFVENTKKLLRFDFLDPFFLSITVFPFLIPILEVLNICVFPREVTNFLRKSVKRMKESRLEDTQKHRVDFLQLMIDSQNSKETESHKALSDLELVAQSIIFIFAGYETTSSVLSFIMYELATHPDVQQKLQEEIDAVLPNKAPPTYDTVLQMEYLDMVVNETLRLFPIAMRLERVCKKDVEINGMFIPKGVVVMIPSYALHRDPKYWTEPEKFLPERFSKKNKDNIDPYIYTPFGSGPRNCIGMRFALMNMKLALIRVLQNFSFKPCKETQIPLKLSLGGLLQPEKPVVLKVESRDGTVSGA
Cytochrome P450 2C9, sequence (P11712 whole entry): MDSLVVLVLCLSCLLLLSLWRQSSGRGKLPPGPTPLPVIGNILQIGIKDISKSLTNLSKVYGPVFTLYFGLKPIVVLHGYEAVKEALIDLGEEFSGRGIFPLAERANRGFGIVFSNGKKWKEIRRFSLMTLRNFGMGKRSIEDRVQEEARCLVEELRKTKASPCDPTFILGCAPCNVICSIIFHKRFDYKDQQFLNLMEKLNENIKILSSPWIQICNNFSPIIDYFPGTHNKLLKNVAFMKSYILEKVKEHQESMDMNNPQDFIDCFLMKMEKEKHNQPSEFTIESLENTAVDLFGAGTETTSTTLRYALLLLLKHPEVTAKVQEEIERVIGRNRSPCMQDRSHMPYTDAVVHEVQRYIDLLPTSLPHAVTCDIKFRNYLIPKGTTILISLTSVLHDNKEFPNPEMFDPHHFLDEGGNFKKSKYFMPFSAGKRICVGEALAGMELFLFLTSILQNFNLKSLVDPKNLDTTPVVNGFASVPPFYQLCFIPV
Cytochrome P450 2D6, sequence (P10635 whole entry): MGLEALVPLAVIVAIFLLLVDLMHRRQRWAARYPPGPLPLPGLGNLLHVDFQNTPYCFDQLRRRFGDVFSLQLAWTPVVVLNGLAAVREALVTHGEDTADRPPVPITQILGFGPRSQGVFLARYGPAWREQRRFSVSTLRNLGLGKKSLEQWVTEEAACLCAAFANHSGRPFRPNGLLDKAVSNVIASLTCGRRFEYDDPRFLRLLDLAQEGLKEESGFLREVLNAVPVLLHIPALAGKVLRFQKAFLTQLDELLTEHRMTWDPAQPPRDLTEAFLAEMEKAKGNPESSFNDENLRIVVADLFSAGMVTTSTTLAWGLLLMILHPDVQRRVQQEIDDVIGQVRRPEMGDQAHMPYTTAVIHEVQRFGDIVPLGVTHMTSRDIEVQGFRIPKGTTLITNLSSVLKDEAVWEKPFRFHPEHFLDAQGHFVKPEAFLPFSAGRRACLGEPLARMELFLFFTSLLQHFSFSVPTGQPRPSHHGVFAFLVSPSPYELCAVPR
Cytochrome P450 2C19, sequence (P33261 whole entry): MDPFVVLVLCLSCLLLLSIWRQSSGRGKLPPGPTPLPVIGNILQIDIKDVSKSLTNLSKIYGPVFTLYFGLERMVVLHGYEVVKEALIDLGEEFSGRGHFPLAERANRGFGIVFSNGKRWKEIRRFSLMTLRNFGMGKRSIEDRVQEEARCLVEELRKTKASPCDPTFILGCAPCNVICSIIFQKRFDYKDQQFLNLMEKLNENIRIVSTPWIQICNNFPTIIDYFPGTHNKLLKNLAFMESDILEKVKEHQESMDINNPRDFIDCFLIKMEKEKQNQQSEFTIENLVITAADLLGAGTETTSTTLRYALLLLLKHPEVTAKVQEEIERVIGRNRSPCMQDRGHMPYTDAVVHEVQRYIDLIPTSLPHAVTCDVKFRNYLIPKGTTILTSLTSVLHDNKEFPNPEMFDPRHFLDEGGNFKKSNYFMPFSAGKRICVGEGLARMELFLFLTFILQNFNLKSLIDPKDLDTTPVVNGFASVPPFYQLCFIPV

Cc1ccc(OCC(=O)N2CCN(C(=O)CCC3CCCC3)CC2)cc1
IC50 [1]: 57.3 µM (active)

Clc1ccc(OCCCNCc2ccccc2)c2ccccc12
CC50 [2]: 23.6 µM (active)
IC50 [3]: 12.2 µM (active)
CC50 [4]: > 25 µM (active)

CN(C)CCNc1nc(S(=O)(=O)c2ccccc2)c(Cl)s1
IC50 [1]: 51.9 µM (active)

COC(=O)N1CCC2(CC1)CCN(c1ccccc1)CC2
AC50 [5]: 5.01 µM (inconclusive)
AC50 [6]: inconclusive

CCN(CC)S(=O)(=O)c1ccc2c(c1)c(=O)c(C(=O)NCc1ccco1)cn2C
EC50 [7]: > 195 µM (not active)
IC50 [8]: 2.14 µM (active)

Clc1ccc(Cl)c(OCCCCNCc2ccccc2)c1
CC50 [2]: 38.1 µM (active)
IC50 [3]: 36.9 µM (active)

Cn1cccc1C(=O)N1CCC2(CC1)CN(C(c1ccccc1)c1ccccc1)C2
AC50 [9]: 31.6 µM (inconclusive)
AC50 [10]: 39.8 µM (inconclusive)
AC50 [6]: inconclusive

O=C(O)/C(=C\c1ccccc1)Cc1ccccc1
AC50 [10]: 3.98 µM (inconclusive)
AC50 [6]: inconclusive

COC(=O)c1ccc(N2CCN(C)CC2)c(NC(=O)c2cccs2)c1
EC50 [11]: 2.11 µM (active)

Cc1ccc(/C=C2\SC(=S)N(C3CCS(=O)(=O)C3)C2=O)o1 (centres undefined)
CC50 [2]: > 40 µM (active)

COCC(=O)N1CCC2(CC1)CCN(C(c1ccccc1)c1ccccc1)CC2
AC50 [6]: inconclusive

O=C(c1ccco1)N1CCC2(CC1)CN(c1ccccn1)C2
AC50 [12]: 15.8 µM (inconclusive)
AC50 [6]: inconclusive

O=C(Oc1ccccc1)N1CCC2(CC1)CN(c1ccccn1)C2
AC50 [6]: inconclusive

CC(C)(C)C(=O)NC(=S)NNC(=O)c1sc2ccccc2c1Cl
EC50 [13]: 2.54 µM (inconclusive)
EC50 [7]: 3.06 µM (active)
EC50 [14]: 1.35 µM (active)
CC50 [15]: 6.74 µM (active)
EC50 [11]: 0.267 µM (active)
AC50 [16]: 3.26 µM (active)
AC50 [17]: 19.1 µM (active)
AC50 [18]: 12.1 µM (active)
AC50 [19]: 1.54 µM (active)

CCN1CCN(c2c(Cl)cccc2NC(=O)c2ccc3nsnc3c2)CC1
EC50 [11]: 0.668 µM (active)

Oc1ccc(Cl)cc1/N=C/c1c[nH]nc1O
IC50 [1]: 14.3 µM (active)
IC50 [20]: 30 µM (active)
